Source: article PMC11050443, “Discovery of Strong 3-Nitro-2-Phenyl-2H-Chromene Analogues as Antitrypanosomal Agents and Inhibitors of Trypanosoma cruzi Glucokinase” (International Journal of Molecular Sciences, 2024)
Like-named read-outs stand apart in the source and are kept apart here.

Assays:
[1] = molecular target: T1, LmG6PDH (Leuconostoc mesenteroides glucose-6-phosphate dehydrogenase) (Leuconostoc mesenteroides, UniProt P11411); assay: Confirmatory assay on the LmG6PDH enzyme-coupled system; assay type: biochemical; settings: for LmG6PDH inhibitory effect (in words): 20 µM compound; for inhibition at 20 µM: read-out: LmG6PDH Inh20
T1 construct: purchased Worthington Biochemical Corporation
T1 sequence (P11411 whole entry): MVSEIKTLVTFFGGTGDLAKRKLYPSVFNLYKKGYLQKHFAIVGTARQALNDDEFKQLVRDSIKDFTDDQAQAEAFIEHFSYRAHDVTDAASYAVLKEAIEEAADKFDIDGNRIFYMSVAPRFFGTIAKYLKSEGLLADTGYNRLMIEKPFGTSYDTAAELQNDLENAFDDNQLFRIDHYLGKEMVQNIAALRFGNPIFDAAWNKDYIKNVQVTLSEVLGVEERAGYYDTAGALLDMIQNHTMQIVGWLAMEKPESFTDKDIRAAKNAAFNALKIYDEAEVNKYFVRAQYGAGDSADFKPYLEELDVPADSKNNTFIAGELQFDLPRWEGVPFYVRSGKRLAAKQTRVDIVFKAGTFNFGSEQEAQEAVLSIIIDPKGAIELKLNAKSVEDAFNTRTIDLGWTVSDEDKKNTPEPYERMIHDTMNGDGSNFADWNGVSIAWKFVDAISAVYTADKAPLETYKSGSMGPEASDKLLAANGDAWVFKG
Procedure: Two criteria were examined in order to certify on-target confirmed hits: (a) the assessment of potential inhibition to the LmG6PDH enzyme-coupled system, and (b) the precision of the assay (per inhibitor), performed in quadruplicate (N = 4). Compounds were tested in quadruplicate in a black, round-bottom 96-well microplate in which wells were filled with a buffered solution (50 mM triethanolamine, 150 mM NaCl) amounting to a total volume of 206.5 μL that contained the following reagents at final assay concentrations: LmG6PDH (6.1 μg/mL), NADP^+ (0.54 mM), ATP (0.54 mM), MgCl2 (6.9 mM), DMSO (1.0% by vol.), D-glucose-6-phosphate (0.80 mM), and a 3-nitro-2-phenyl-2H-chromene analogue (20.0 μM). The analogue compounds were pre-incubated with the enzyme system a minimum of 10 min prior to the initiation of the assay. The enzymatic reactions were initiated and terminated similarly as described in the TcGlcK primary screen (vide supra). The production of NADPH was monitored using the VANTAstar-F multi-mode microplate reader set to fluorescent mode, λex = 340 nm and λem = 485 nm, over a 120-s timeframe.

[2] = molecular target: T2, TcGlcK (Trypanosoma cruzi glucokinase) (Trypanosoma cruzi, UniProt Q4E4E1); assay: TcGlcK primary screening assay (LmG6PDH-coupled, Dixon plots); assay type: biochemical; settings: for Mode of TcGlcK inhibition: Cornish-Bowden method, Dixon plots of [D-Glc]/V versus inhibitor concentration; for Ki: Dixon plots, 0.4, 0.6, 0.8 mM D-glucose, N = 1 unless marked, N = 3 for compounds 1, 4, 9, 11
T2 construct: made in house; host or cells: Escherichia coli BL21(DE3)
T2 sequence (Q4E4E1 1-376): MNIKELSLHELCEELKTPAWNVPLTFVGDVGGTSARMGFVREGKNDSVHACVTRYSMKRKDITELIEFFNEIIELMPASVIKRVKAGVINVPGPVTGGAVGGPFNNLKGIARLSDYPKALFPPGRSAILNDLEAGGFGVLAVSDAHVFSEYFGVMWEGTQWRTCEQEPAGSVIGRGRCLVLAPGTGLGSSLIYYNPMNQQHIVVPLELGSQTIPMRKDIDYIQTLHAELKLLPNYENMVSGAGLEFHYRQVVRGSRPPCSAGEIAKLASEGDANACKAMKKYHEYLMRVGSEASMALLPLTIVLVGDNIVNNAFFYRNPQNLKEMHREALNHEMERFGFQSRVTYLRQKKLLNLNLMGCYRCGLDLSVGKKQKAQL
Procedure: A primary screening assay was carried out for TcGlcK with the 3-nitro-2-phenyl-2H-chromene analogues. The data was subsequently processed for respective Ki values in order to assess enzyme inhibition. […] The primary screening assay was performed with the substrate D-glucose in various concentrations of 0.4 mM, 0.6 mM, and 0.8 mM to produce Dixon plots with different slopes. Each of the 3-nitro-2-phenyl-2H-chromene analogues were originally prepared at a working concentration of 1.0 mM and were dissolved in 100% DMSO. The final assay concentrations of the analogue compounds (inhibitors) ranged from 0.0–10.0 μM. The analogue compounds were pre-incubated with the enzyme system a minimum of 10 min prior to the initiation of the assay. The enzymatic reaction was carried out at room temperature (22 °C; temperature optimum) using ATP to initiate the reaction, and termination was performed after 120 s (time optimum) by stopping the reaction with the addition of an EDTA (pH 8.0) solution, to a final concentration of 100 mM. TcGlcK enzyme activity was analyzed for the production of NADPH. Each completed reaction mixture was added into a black, round-bottom microplate and scanned by a VANTAstar-F multi-mode microplate reader (BMG LABTECH, Inc.; Cary, NC, USA). The instrument was set to fluorescence mode and the wavelengths (λex = 340 nm; λem = 485 nm) were set to observe the relative fluorescence units of NADPH [40]. The enzyme-inhibition kinetics Ki value determination and the mode of inhibition was determined using the Cornish–Bowden Dixon Plot analysis method.

[3] = system: T. brucei brucei (427 strain) bloodstream form; assay: In vitro T. brucei biological assay (Alamar blue); assay type: cell-based, Trypanosoma brucei brucei; settings: for anti-T. brucei activity (in words): T. brucei brucei 427 strain bloodstream form
Procedure: The in vitro cell culture preparation of T. brucei brucei (427 strain) trypomastigote bloodstream form followed by treatment with inhibitors has recently been described by Ajayi and colleagues. The 3-nitro-2-phenyl-2H-chromene compounds (inhibitors) that were prepared as 10.0 mM stock solutions in 100% DMSO were thawed from −80 °C to room temperature. HMI-9 medium [Iscove’s modification of DMEM supplemented with 10% FBS, 10% serum plus (SAFC), 0.05 mM bathocuproinesulfonate, 1.5 mM L-cysteine, 1.0 mM hypoxanthine, 0.2 mM β-mercaptoethanol, 0.16 mM thymidine, and 1.0 mM pyruvate] was prepared. In a sterile, round-bottom, 96-well microplate, 100 μL of HMI-9 medium was added to each well. A volume of 2.0 μL of a given compound plus a volume of 98.0 μL of fresh media were both added to a well in the first row of the 96-well microplate; this was performed for each compound to be tested. Solutions were mixed with a micropipette followed by transfer of 100 μL to the next row and repeated. The compound solutions ranged from 0.0781–10.0 μM and this was accomplished by serial dilution using a 2-fold dilution. T. brucei parasites were centrifuged for 10 min at 900× g (without centrifuge breaks). The media was carefully discarded by aspiration and the parasites were resuspended in warm media. Parasites were counted in a Newbauer chamber. Afterwards, the parasites were diluted to 50,000 cells/mL (5000 cells/well) and 100 μL was added to each well of the 96-well microplate using a multichannel pipette. After 48 h, 20.0 μL of Alamar blue was added to each well and the plate was placed into an incubator for 4 h at 37 °C. Fluorescence readings were measured using a Victor Nivo multimode microplate reader (PerkinElmer, Inc.; Shelton, CT, USA) at λex = 530 nm and λem = 590 nm. All measurements were performed in triplicate and IC50 determinations for percent growth inhibition were carried out using GraphPad Prism 10.0. The detergent SDS was used as a positive control and its final solution concentration was 0.5%. Three control experiments were performed, as follows: (a) parasites alone, (b) parasites and 0.5% SDS, and (c) the medium alone.

[4] = percentage of inhibition at 20 µM compound in comparison to controls, N = 4
[5] = Trypanosoma brucei, 48 h, T. brucei brucei 427 strain bloodstream form growth inhibition, N = 3
[6] = Trypanosoma brucei, bound stated in the text for the top seven anti-T. brucei compounds
[7] = T. brucei brucei 427 strain bloodstream form growth inhibition, 48 h, N = 3

CCOc1ccc(C2Oc3ccc(Br)cc3C=C2[N+](=O)[O-])cc1OC (centres unmarked) [Compound 1, 6-Bromo-2-(4-ethoxy-3-methoxyphenyl)-3-nitro-2H -chromene]
LmG6PDH inhibitory effect (in words) ([1]; N = 4): did not observe any significant LmG6PDH inhibitory effects
inhibition at 20 µM [1, 4]: 15.4 ± 0.1%
Mode of TcGlcK inhibition [2]: uncompetitive inhibition
Ki [2]: 6200 ± 1200 nM
anti-T. brucei activity (in words) [3]: nanomolar potency
IC50 [3, 5]: 610 ± 30 nM
IC50 [3, 6]: < 750 nM

CCOc1ccc(C2Oc3ccc(Br)cc3C=C2[N+](=O)[O-])cc1OCC (centres unmarked) [Compound 2, 6-Bromo-2-(3,4-diethoxyphenyl)-3-nitro-2H -chromene]
inhibition at 20 µM [1, 4]: 0%
Ki [2]: 46000 nM
IC50 [3, 5]: 1190 ± 40 nM

COc1ccc(C2Oc3c(cc(Br)cc3OC)C=C2[N+](=O)[O-])cc1OC (centres unmarked) [Compound 3, 6-Bromo-2-(3,4-dimethoxyphenyl)-8-methoxy-3-nitro-2H -chromene]
inhibition at 20 µM [1, 4]: 0%
Ki [2]: 24000 nM
anti-T. brucei activity (in words) [3]: nanomolar potency
IC50 [3, 7]: 520 ± 50 nM
IC50 [3, 5]: < 550 nM
IC50 [3, 6]: < 750 nM

COc1ccc(C2Oc3ccc(Br)cc3C=C2[N+](=O)[O-])cc1OC (centres unmarked) [Compound 4, 6-Bromo-2-(3,4-dimethoxyphenyl)-3-nitro-2H -chromene]
LmG6PDH inhibitory effect (in words) ([1]; N = 4): did not observe any significant LmG6PDH inhibitory effects
inhibition at 20 µM [1, 4]: 12.1%
Mode of TcGlcK inhibition [2]: mixed-mode inhibition
Ki [2]: 5500 ± 1800 nM
anti-T. brucei activity (in words) [3]: nanomolar potency
IC50 [3, 7]: 440 ± 30 nM
IC50 [3, 5]: < 550 nM
IC50 [3, 6]: < 750 nM

COc1ccc(C2Oc3c(Br)cc(Br)cc3C=C2[N+](=O)[O-])cc1OC (centres unmarked) [Compound 5, 6,8-Dibromo-2-(3,4-dimethoxyphenyl)-3-nitro-2H -chromene]
inhibition at 20 µM [1, 4]: 0%
Ki [2]: 35000 nM
anti-T. brucei activity (in words) [3]: nanomolar potency
IC50 [3, 7]: 420 ± 40 nM
IC50 [3, 5]: < 550 nM
IC50 [3, 6]: < 750 nM

CCOc1ccc(C2Oc3c(Br)cc(Br)cc3C=C2[N+](=O)[O-])cc1OC (centres unmarked) [Compound 6, 6,8-Dibromo-2-(4-ethoxy-3-methoxyphenyl)-3-nitro-2H -chromene]
LmG6PDH inhibitory effect (in words) ([1]; N = 4): did not observe any significant LmG6PDH inhibitory effects
inhibition at 20 µM [1, 4]: 16.1%
Ki [2]: 6100 nM
anti-T. brucei activity (in words) [3]: nanomolar potency
IC50 [3, 7]: 360 ± 60 nM
IC50 [3, 5]: < 550 nM
IC50 [3, 6]: < 750 nM

O=[N+]([O-])C1=Cc2cc(Br)cc(Br)c2OC1c1c(Cl)cccc1Cl (centres unmarked) [Compound 7, 2-(2,6-Dichlorophenyl)-6,8-dibromo-3-nitro-2H -chromene]
inhibition at 20 µM [1, 4]: 0%
Ki [2]: 50000 nM
anti-T. brucei activity (in words) [3]: nanomolar potency
IC50 [3, 5]: 900 ± 330 nM

CCOc1ccc(C2Oc3c(cc(Br)cc3OC)C=C2[N+](=O)[O-])cc1OC (centres unmarked) [Compound 8, 6-Bromo-2-(4-ethoxy-3-methoxyphenyl)-8-methoxy-3-nitro-2H -chromene]
inhibition at 20 µM [1, 4]: 0%
Ki [2]: 30000 nM
anti-T. brucei activity (in words) [3]: nanomolar potency
IC50 [3, 5]: 740 ± 140 nM
IC50 [3, 6]: < 750 nM

CCOc1ccc(C2Oc3c(Cl)cc(Cl)cc3C=C2[N+](=O)[O-])cc1OCC (centres unmarked) [Compound 9, 6,8-Dichloro-2-(3,4-diethoxyphenyl)-3-nitro-2H -chromene]
LmG6PDH inhibitory effect (in words) ([1]; N = 4): did not observe any significant LmG6PDH inhibitory effects
inhibition at 20 µM [1, 4]: 10.1 ± 0.1%
Mode of TcGlcK inhibition [2]: mixed-mode inhibition
Ki [2]: 12300 ± 5500 nM
anti-T. brucei activity (in words) [3]: nanomolar potency
IC50 [3, 5]: 660 ± 50 nM
IC50 [3, 6]: < 750 nM

CCOc1ccc(C2Oc3ccccc3C=C2[N+](=O)[O-])cc1OCC (centres unmarked) [Compound 10, 2-(3,4-Diethoxyphenyl)-3-nitro-2H -chromene]
inhibition at 20 µM [1]: 0%
Ki [2]: 23000 nM
IC50 [3, 5]: 1120 ± 300 nM

O=[N+]([O-])C1=Cc2cc(Br)ccc2OC1c1ccccc1Cl (centres unmarked) [Compound 11, 6-Bromo-2-(2-chlorophenyl)-3-nitro-2H -chromene]
LmG6PDH inhibitory effect (in words) ([1]; N = 4): did not observe any significant LmG6PDH inhibitory effects
inhibition at 20 µM [1, 4]: 15 ± 0.1%
Mode of TcGlcK inhibition [2]: noncompetitive inhibition
Ki [2]: 20000 ± 4300 nM
anti-T. brucei activity (in words) [3]: nanomolar potency
IC50 [3, 5]: 860 ± 200 nM

O=[N+]([O-])C1=Cc2ccccc2OC1c1c(Cl)cccc1Cl (centres unmarked) [Compound 13, 2-(2,6-Dichlorophenyl)-3-nitro-2H -chromene]
inhibition at 20 µM [1, 4]: 0%
Ki [2]: 25000 nM
IC50 [3, 5]: 1280 ± 100 nM
